Data reported in ChEMBL document CHEMBL1134709 (Bioorg Med Chem Lett, 2001).

target: T1, Protein Tat (Human immunodeficiency virus type 1 group M subtype B (isolate PCV12)(HIV-1), UniProt P04326); assay: Inhibition of Tat peptide binding to HIV-1 TAR RNA; set-up: species or system Human immunodeficiency virus type 1 (CLONE 12)
T1 sequence (P04326 whole entry): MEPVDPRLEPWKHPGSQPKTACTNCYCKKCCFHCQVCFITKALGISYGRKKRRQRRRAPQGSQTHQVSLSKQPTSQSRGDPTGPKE

Row | IC50 [nM] | SMILES
1 | 1700 | NC1C[C@@H](N)[C@@H](O)[C@@H](O)C1O[C@@H]1OC(CNC(=O)c2ccc3ccc4cccc5ccc2c3c45)C(O)[C@H](O)[C@@H]1N (some centres undefined)
2 | 600 | N=C(N)NCCCC(N)C(=O)NCC1O[C@@H](OC2C(N)C[C@@H](N)[C@@H](O)[C@H]2O)[C@@H](N)[C@@H](O)C1O (some centres undefined)
3 | 28 | N=C(N)NCCCC(NC(=O)c1ccc2ccc3cccc4ccc1c2c34)C(=O)NCC1OC(OC2C(N)CC(N)C(O)C2O)C(N)C(O)C1O (centres undefined)

Row | SMILES | IC50 [nM]
4 | NC[C@H]1OC(O[C@H]2[C@H](O)C(O)[C@H](N)C[C@@H]2N)C(N)[C@@H](O)[C@@H]1O (single isomer, unassigned) [NEAMINE] | 28000
